Results published in paper PMC8119466, “A screen of FDA-approved drugs identifies inhibitors of protein tyrosine phosphatase 4A3 (PTP4A3 or PRL-3)” (Scientific Reports, 2021).
Structures can show the parent of a compound that is named as a salt. Where two headings read alike, the source gives them in different places.

Experiments:
Assay type in all cases: biochemical
recombinant PRL-1 = target: T1, recombinant PRL-1 (Homo sapiens, UniProt Q93096); assay: In vitro phosphatase assay (DiFMUP hydrolysis), PRL-1; further: test concentration or dose not given here
T1 construct: 6xHis (N, cleaved yes); made in house; host or cells: E. coli One Shot BL21 Star
T1 sequence (Q93096 1-173): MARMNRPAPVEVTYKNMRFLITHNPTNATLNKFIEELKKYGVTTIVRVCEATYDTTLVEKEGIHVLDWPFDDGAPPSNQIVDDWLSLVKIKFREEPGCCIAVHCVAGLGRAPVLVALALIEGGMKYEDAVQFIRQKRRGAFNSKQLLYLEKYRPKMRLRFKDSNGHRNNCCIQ

recombinant PRL-2 = target: T2, recombinant PRL-2 (Homo sapiens, UniProt Q12974); assay: In vitro phosphatase assay (DiFMUP hydrolysis), PRL-2;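 further: PRL-2 activity read as DiFMUP hydrolysis after 20 min at room temperature with drug, enzyme first pre-reduced at 4 °C for 20 min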
T2 construct: 6xHis (N, cleaved yes); made in house; host or cells: E. coli One Shot BL21 Star
T2 sequence (Q12974 1-167): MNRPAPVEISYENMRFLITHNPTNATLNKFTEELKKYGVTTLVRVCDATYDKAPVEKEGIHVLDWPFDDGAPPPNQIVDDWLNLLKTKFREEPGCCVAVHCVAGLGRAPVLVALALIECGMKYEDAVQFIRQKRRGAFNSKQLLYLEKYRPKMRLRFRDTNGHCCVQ

recombinant PRL-3 = target: T3, recombinant PRL-3 (Homo sapiens, UniProt O75365); assay: In vitro phosphatase assay (DiFMUP hydrolysis), PRL-3; further: test concentration or dose not given here
T3 construct: 6xHis (N, cleaved yes); made in house; host or cells: E. coli One Shot BL21 Star
T3 sequence (O75365 whole entry): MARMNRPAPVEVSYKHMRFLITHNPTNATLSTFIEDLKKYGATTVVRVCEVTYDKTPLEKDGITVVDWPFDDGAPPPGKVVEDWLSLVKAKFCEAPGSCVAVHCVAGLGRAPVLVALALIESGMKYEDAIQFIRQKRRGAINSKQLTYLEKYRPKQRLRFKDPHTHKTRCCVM

[1] = FDA-approved drug screen, compared to DMSO
[2] = FDA-approved drug screen, activity compared to DMSO

Structure (SMILES) | % Phosphatase Activity (compared to DMSO) PRL-1 (recombinant PRL-1; [1]) [%] | % Phosphatase Activity (compared to DMSO) PRL-2 (recombinant PRL-2; [1]) [%] | % Phosphatase Activity (compared to DMSO) PRL-3 (recombinant PRL-3; [1]) [%] | further results
CCOC(=O)C1=C[C@@H](OC(CC)CC)[C@H](NC(C)=O)[C@@H](N)C1 [Oseltamivir Phosphate] | 91 | 102 | 94 | 
C[C@H]1[C@H](NC(=O)/C(=N\OC(C)(C)C(=O)O)c2csc(N)n2)C(=O)N1S(=O)(=O)O [Aztreonam] | 97 | 88 | 76 | 
O=C(O)CCCC[C@@H]1SC[C@@H]2NC(=O)N[C@@H]21 [Biotin (Vitamin B7)] | 104 | 101 | 86 | 
COc1ccc(CN(CCN(C)C)c2ccccn2)cc1 [Pyrilamine Maleate] | 94 | 111 | 98 | 
C#CCN[C@@H]1CCc2ccccc21 [Rasagiline Mesylate] |  |  |  | % Phosphatase Activity (compared to DMSO) PRL-1 (recombinant PRL-1): 116%; % Phosphatase Activity (compared to DMSO) PRL-2 (recombinant PRL-2): 130%; % Phosphatase Activity (compared to DMSO) PRL-3 (recombinant PRL-3): 99%
Cc1ccc(-c2nc3ccc(C)cn3c2CC(=O)N(C)C)cc1 [Zolpidem] |  |  |  | % Phosphatase Activity (compared to DMSO) PRL-1 (recombinant PRL-1; [2]): 98%; % Phosphatase Activity (compared to DMSO) PRL-2 (recombinant PRL-2; [2]): 97%; % Phosphatase Activity (compared to DMSO) PRL-3 (recombinant PRL-3; [2]): 85%
C[C@H](Cc1cc2c(c(C(N)=O)c1)N(CCCO)CC2)NCCOc1ccccc1OCC(F)(F)F [Silodosin] |  |  |  | % Phosphatase Activity (compared to DMSO) PRL-1 (recombinant PRL-1; [2]): 117%; % Phosphatase Activity (compared to DMSO) PRL-2 (recombinant PRL-2; [2]): 104%; % Phosphatase Activity (compared to DMSO) PRL-3 (recombinant PRL-3; [2]): 95%
CC1=NN(c2ccccc2)C(=O)C1 [Edaravone] | 90 | 82 | 72 | 
N.N.O=C([O-])C1(C(=O)[O-])CCC1.[Pt+2] [Carboplatin] | 90 | 79 | 85 | 
CCOc1cc(CC(=O)N[C@@H](CC(C)C)c2ccccc2N2CCCCC2)ccc1C(=O)O [Repaglinide] | 96 | 81 | 87 | 
CSc1nc2cc(Cl)c(Oc3cccc(Cl)c3Cl)cc2[nH]1 [Triclabendazole] |  |  |  | % Phosphatase Activity (compared to DMSO) PRL-1 (recombinant PRL-1; [2]): 106%; % Phosphatase Activity (compared to DMSO) PRL-2 (recombinant PRL-2; [2]): 91%; % Phosphatase Activity (compared to DMSO) PRL-3 (recombinant PRL-3; [2]): 70%
C=CC1=C(C(=O)O)N2C(=O)[C@@H](NC(=O)/C(=N\OCC(=O)O)c3csc(N)n3)[C@H]2SC1 [Cefixime] | 89 | 90 | 90 | 
O=C(O)c1cccnc1 [Nicotinic Acid] |  |  |  | % Phosphatase Activity (compared to DMSO) PRL-1 (recombinant PRL-1): 95%; % Phosphatase Activity (compared to DMSO) PRL-2 (recombinant PRL-2): 94%; % Phosphatase Activity (compared to DMSO) PRL-3 (recombinant PRL-3): 91%
CC(C)[C@H](N)C(=O)OCC(CO)OCn1cnc2c(=O)nc(N)[nH]c21 (stereo partly drawn) [Valganciclovir HCl] |  |  |  | % Phosphatase Activity (compared to DMSO) PRL-1 (recombinant PRL-1; [2]): 103%; % Phosphatase Activity (compared to DMSO) PRL-2 (recombinant PRL-2; [2]): 97%; % Phosphatase Activity (compared to DMSO) PRL-3 (recombinant PRL-3; [2]): 75%
CC[C@H]1OC(=O)[C@H](C)[C@@H](O[C@H]2C[C@@](C)(OC)[C@@H](O)[C@H](C)O2)[C@H](C)[C@@H](O[C@@H]2O[C@H](C)C[C@H](N(C)C)[C@H]2O)[C@](C)(O)C[C@@H](C)CN(C)[C@H](C)[C@@H](O)[C@]1(C)O [Azithromycin Dihydrate] | 98 | 99 | 73 | 
CS(=O)(=O)c1ccc([C@@H](O)[C@@H](CF)NC(=O)C(Cl)Cl)cc1 [Florfenicol] | 100 | 111 | 75 | 
CC(C)C[C@H](NC(=O)[C@H](CCc1ccccc1)NC(=O)CN1CCOCC1)C(=O)N[C@@H](Cc1ccccc1)C(=O)N[C@@H](CC(C)C)C(=O)[C@@]1(C)CO1 [Carfilzomib (PR-171)] | 97 | 88 | 94 | 
COc1nc(C)cnc1NS(=O)(=O)c1cccnc1-c1ccc(-c2nnco2)cc1 [Zibotentan (ZD4054)] |  |  |  | % Phosphatase Activity (compared to DMSO) PRL-1 (recombinant PRL-1; [2]): 99%; % Phosphatase Activity (compared to DMSO) PRL-2 (recombinant PRL-2; [2]): 97%; % Phosphatase Activity (compared to DMSO) PRL-3 (recombinant PRL-3; [2]): 94%
CC(C(=O)O)c1ccc(-c2ccccc2)c(F)c1 (stereo not drawn) [Flurbiprofen] | 97 | 89 | 73 | 
COc1ccc(C(Cl)=C(c2ccc(OC)cc2)c2ccc(OC)cc2)cc1 [Chlorotrianisene] | 103 | 110 | 92 | 
O=C1c2ccccc2C(=O)C1c1ccccc1 [Phenindione] | 93 | 100 | 84 | 
NCCc1ccc(O)c(O)c1 [Dopamine HCl] |  |  |  | % Phosphatase Activity (compared to DMSO) PRL-1 (recombinant PRL-1): 125%; % Phosphatase Activity (compared to DMSO) PRL-2 (recombinant PRL-2): 119%; % Phosphatase Activity (compared to DMSO) PRL-3 (recombinant PRL-3): 82%
CO[C@@H]1[C@@H](OC(N)=O)[C@@H](O)[C@H](Oc2ccc3c(O)c(NC(=O)c4ccc(O)c(CC=C(C)C)c4)c(=O)oc3c2C)OC1(C)C [Novobiocin Sodium] | 94 | 87 | 70 | 
Cc1ccc(O)c([C@H](CCN(C(C)C)C(C)C)c2ccccc2)c1 [Tolterodine tartrate] |  |  |  | % Phosphatase Activity (compared to DMSO) PRL-1 (recombinant PRL-1; [2]): 98%; % Phosphatase Activity (compared to DMSO) PRL-2 (recombinant PRL-2; [2]): 110%; % Phosphatase Activity (compared to DMSO) PRL-3 (recombinant PRL-3; [2]): 93%
CC(C)COc1ccc(CNC(=O)N(Cc2ccc(F)cc2)C2CCN(C)CC2)cc1 [Pimavanserin] | 95 | 88 | 95 | 
CC(C)(C)c1nc(-c2cccc(NS(=O)(=O)c3c(F)cccc3F)c2F)c(-c2ccnc(N)n2)s1 [Dabrafenib (GSK2118436)] | 81 | 82 | 86 | 
CC(=O)Oc1cc2c(s1)CCN(C(C(=O)C1CC1)c1ccccc1F)C2 (stereo not drawn) [Prasugrel Hydrochloride] | 92 | 109 | 87 | 
CCC(=O)NS(=O)(=O)c1ccc(-c2c(-c3ccccc3)noc2C)cc1 [Parecoxib] | 98 | 84 | 74 | 
C[C@@H]1CN(c2c(F)c(N)c3c(=O)c(C(=O)O)cn(C4CC4)c3c2F)C[C@H](C)N1 [Sparfloxacin] |  |  |  | % Phosphatase Activity (compared to DMSO) PRL-1 (recombinant PRL-1; [2]): 87%; % Phosphatase Activity (compared to DMSO) PRL-2 (recombinant PRL-2; [2]): 98%; % Phosphatase Activity (compared to DMSO) PRL-3 (recombinant PRL-3; [2]): 121%
CCOC(=O)[C@H](CCc1ccccc1)N[C@@H](C)C(=O)N1C(=O)N(C)C[C@H]1C(=O)O [Imidapril HCl] | 105 | 95 | 76 | 
